Test results taken from patent publication US20140259191A1, “FISH ANESTHETIC AND METHOD” (AQUA-MOR TECHNOLOGIES LTD., priority 2011, published 2014).

Columns and labels:
Ramirez fish = assay: Anesthesia of Ramirez fish by linalool or Ho Wood oil added to tank water; assay type: in vivo
Protocol: (§1) A one year old koi fish of body length 11 cm and which appeared to be healthy was placed in a 4 liter tank containing water at 25° C. and in which the water was circulated by means of aeration. A liquid a mixture containing 1 wt. % synthetic linalool (1 wt. % linalool, 5 wt. % 14R, 2 wt. % AF80 and 92 wt. % water) was added to the tank and manually mixed with the water so that the concentration of linalool in the water was 50 ppm. This was regarding as the starting time of the experiment; thereafter, observations were made regularly to determine the behavior of the fish in water. This continued until no response to external stimulation and complete loss of equilibrium were observed, at which point the fish was transferred to a recovery tank containing fresh water. The fish was placed near the air pump, and the time until the fish again swam and responded normally to external stimulation was recorded.
This experiment repeated the experiment of Example 1, using three goldfish (Carassius auratus auratus, average body length 12.5 cm) and five Ramirez fish (Mikrogeophagus ramirezi, body length 3.5-4 cm). All fishes appeared to be healthy. The goldfish tank held 4 liters of water and the tank holding the Ramirez fish one liter.
The experiment of example 9 was repeated, this time using five nine-month old Ramirez fish (M. ramirezi) in a one-liter tank. The respective weights were 0.8 g, 0.75 g, 0.7 g, 0.85 g and 0.75 g and the respective body lengths were 3.5 cm, 3.5 cm, 3 cm, 4 cm and 3 cm. The water temperature was 26° C. and the pH was 7. The fish became relaxed 2 minutes after addition of linalool, and after 5 minutes the fish were completely anesthetized. After 10 minutes the fish were removed to a recovery tank with fresh water. After 5 minutes in the recovery tank the fish had resumed normal behavior.
(§2) The experiment of Example 21 was repeated, using four one-year old Ramirez fish of respective body lengths 3, 2.5, 3 and 3.5 cm, and adding the Ho Wood oil to a linalool concentration of 50 ppm in the water. […] At 2.5 minutes the fish were removed to a recovery tank with clean water. After 7 minutes in the recovery tank they swam around and appeared to have resumed normal activity.
The experiment of Example 21 was repeated, using four 1-year old Ramirez fish of respective body lengths 3, 3.5, 3.5 and 4 cm, and adding the Ho Wood oil to a linalool concentration in the water of 75 ppm instead 50 ppm. […] At 1.5 minutes the fish were removed to a recovery tank with clean water. After 7 minutes in the recovery tank the fish swam around and appeared to have resumed normal activity.

Guppy fish = assay: Anesthesia of guppy fish by linalool or Ho Wood oil added to tank water; assay type: in vivo
Protocol: as §1
To a one liter tank containing five guppy fingerlings 21-30 days old of weight 0.010-0.014 g and body length 0.5 cm in water at 30° C. and pH 7 was added a formulation containing 92.5% linalool. The formulation was added to the water to a linalool concentration of 50 ppm in the water. The fish became relaxed 5 minutes after addition of linalool and after 7 minutes were completely anesthetized. At 10 minutes the fish were removed to a recovery tank with fresh water. After two minutes in the recovery tank the fish resumed normal behavior.
as §2, with “10-month” for “one-year”, “Guppy” for “Ramirez”, “3.5, 4 and” for “2.5,”, “3” for “3 and 3.5”, “14.5” for “2.5”, “two” for “7”
The experiment of Example 21 was repeated, using four 10-month old Guppy fish of respective body lengths 4, 3.5, 3.5 and 3 cm, and adding the Ho Wood oil to a linalool concentration in the water of 75 ppm instead 50 ppm. […]

catfish = assay: Anesthesia of catfish by linalool added to tank water; assay type: in vivo, Clarias gariepinus; conditions: 100 ppm linalool
Protocol: To a four liter tank containing […] 10-month old catfish (Clarias gariepinus) of respective weights 31 g, 14 g, 24 g and 9 g and respective body lengths 17 cm, 13 cm, 16 cm and 10 cm in water at 31° C. and pH 7 was added a formulation containing 1% linalool. The formulation was added to the water to a linalool concentration of 100 ppm in the water. The fish became relaxed 2 5 minutes after addition of linalool and after 4 minutes were completely anesthetized. At 5.5 minutes the fish were removed to a recovery tank with fresh water. After 7 minutes in the recovery tank the fish resumed normal behavior.

common carp = assay: Five-hour sedation of common carp, linalool versus 2-phenoxyethanol; assay type: in vivo; conditions: linalool 40 ppm; for Number of fish exhibiting loss of upright position: 26° C.
Protocol: 2-Phenoxyethanol (2-PE) is used to sedate fish in vaccinations procedures for relatively long periods of time (3 hours). 35 common carp were placed in each of two 60-liter tanks containing water at 26° C. Into one tank was added linalool (in a formulation as described in Example 28) to a concentration of 40 ppm; into the other tank was added 2-PE to a concentration of 200 ppm. Sedation of fish was determined by observation of loss of upright position, operculum movement and response to stimulus (handling). Total exposure time was five hours, at the end of which the fish were transferred 60-liter recovery tanks containing untreated water.

[1] = Example 12: five Ramirez fish 0.7-0.85 g, experiment of example 9 (50 ppm linalool), 26° C., pH 7
[2] = Example 17: five guppy fingerlings, 50 ppm linalool (formulation containing 92.5% linalool), 30° C., pH 7

Structure (SMILES): C=CC(C)(O)CCC=C(C)C (stereo not shown) [linalool]
- mortality during a further three days of observation (Ramirez fish; Example 7: five Ramirez fish 3.5-4 cm, experiment of Example 1 repeated): no mortality occurred
- time in recovery tank until normal behavior resumed (Ramirez fish; Example 12: Ramirez fish, 26° C., removed after 10 minutes): 5 min
- time after addition of linalool until fish became relaxed (Ramirez fish; [1]): 2 min
- time until fish completely anesthetized (Ramirez fish; [1]): 5 min
- time after addition of linalool until fish became relaxed (Guppy fish; [2]): 5 min
- time until fish completely anesthetized (Guppy fish; [2]): 7 min
- time in recovery tank until normal behavior resumed (Guppy fish; Example 17: guppy fingerlings, 50 ppm linalool, removed at 10 minutes): two
- time until fish completely anesthetized (catfish; Example 19: catfish 9-31 g, 31° C., pH 7): 4 min
- time in recovery tank until normal behavior resumed (catfish; Example 19: catfish, removed at 5.5 minutes): 7 min
- Number of fish exhibiting loss of upright position (common carp; 35 common carp per tank, 2-PE 200 ppm, time 10:30 (start), aeration): 0
- Number of fish exhibiting loss of upright position (common carp; 35 common carp per tank, 2-PE 200 ppm, time 11:00 (start 10:30), no aeration): 2
- Number of fish exhibiting loss of upright position (common carp; 35 common carp per tank, 2-PE 200 ppm, time 11:40 (start 10:30), no aeration): 9
- Number of fish exhibiting loss of upright position (common carp; 35 common carp per tank, 2-PE 200 ppm, time 12:35 (start 10:30), no aeration): 16
- Number of fish exhibiting loss of upright position (common carp; 35 common carp per tank, 2-PE 200 ppm, time 13:35 (start 10:30), no aeration): 17
- Number of fish exhibiting loss of upright position (common carp; 35 common carp per tank, 2-PE 200 ppm, time 14:30 (start 10:30), aeration): 20
- Number of fish exhibiting loss of upright position (common carp; 35 common carp per tank, 2-PE 200 ppm, time 15:30 (start 10:30), aeration): 16
- survival at transfer to recovery tank (common carp; 35 common carp per tank, 2-PE 200 ppm, after five hours exposure): All alive
- reflex response over the 5 hours of exposure (common carp; common carp, 2-PE 200 ppm): reduced from the beginning of the trial and remained at the same level of reflex throughout the 5 hours of exposure
- sedative effect between 3 and 5 hours of exposure (common carp; common carp, 2-PE 200 ppm): maintained
- recovery after placement in a recovery tank (common carp; common carp, 2-PE 200 ppm, after five hours exposure): recovered quickly in few minutes and did not show signs of stress
- response to external stimulation during the first 3 hours (common carp; common carp, 2-PE 200 ppm, sedation levels enabled handling): did not respond to external stimulation
- loss of reflex reactivity (common carp; common carp, in contrast to 2-PE): did not completely lose reflex reactivity
